For one molecule, CL_renal and Tmax results are on record in ChEMBL document CHEMBL3832077, “DailyMed|setid=dc3d3905-2f08-4b71-b949-53f49fb3ea10 | METRONIDAZOLE- metronidazole tablet|Lake Erie Medical DBA Quality Care Products LLC”.

In one data set the test system is Homo sapiens. Briefly: (§1) Evaluation of pharmacokinetic parameters for Metronidazole following oral administration of Metronidazole tablets. Format: ADME, organism-based. More on the design: dose 250 mg, dose 2000 mg, dose 500 mg, route oral. The settings on record: in vivo, po, dosed compound id 31, dosed compound name METRONIDAZOLE, tissue Plasma.
Data set [1] in a line: as §1. The format is ADME, organism-based. More on the design: dose 250 mg, dose 2000 mg, dose 500 mg, route oral. The settings on record: human, in vivo, dosed compound id 31, dosed compound name METRONIDAZOLE, tissue Plasma.

Molecule `Cc1ncc([N+](=O)[O-])n1CCO` [METRONIDAZOLE] registered a CL_renal in the data set with Homo sapiens of 10 mL/min/1.73 m2. Moreover, the Tmax (usually the time from dosing to the highest level) in data set [1] fell in the range of 1 to 2 h.
